Laboratory results taken from ChEMBL document CHEMBL1158241, “Inhibition of hepatitis B surface antigen secretion on human hepatoma cells. Components from Rubia cordifolia” (J Nat Prod, 1996).
Values after ≈ are worked out from the molar mass of the structure shown. Active and inactive are the calls of the source. The calls are words filed in the database; no cut-off is given here.

Key:
[1] = Cytotoxicity against human Hep3B cells at >20 […] by MTT assay; type: cell-based; details: hep 3b2
Hepatitis B virus [2] = assay: Antiviral activity against Hepatitis B virus infected in human Hep3B cells assessed as suppression of viral surface antigen secretion after 48 hrs by enzyme immunoassay; type: functional, organism-based, Hep 3B2
[3] = Cytotoxicity against human Hep3B cells by MTT assay; type: cell-based, Hep 3B2
Hepatitis B virus [4] = assay: Antiviral activity against Hepatitis B virus infected in human Hep3B cells assessed as suppression of viral surface antigen secretion at >5 […] after 48 hrs by enzyme immunoassay; type: functional, organism-based; details: Hep 3B2

Compound | Activity [1] | IC50 (Hepatitis B virus [2]) [µg/mL] | CC50 [3] [µg/mL] | Activity (Hepatitis B virus [4])
COC(=O)c1c2c(c3ccccc3c1OCc1ccccc1)OC(C)(C)C=C2 | Not Active | 1 (≈ 2.67 µM) |  | 
COC(=O)c1c(O)c2ccccc2c2oc(=O)ccc12 [RUBILACTONE] |  |  | 4 (≈ 14.8 µM) | inactive
COC(=O)c1c(OC)c2ccccc2c2oc(=O)ccc12 [METHYLRUBILACTONE] |  |  | 12.5 (≈ 44 µM) | inactive
COc1c(C(=O)O)c2c(c3ccccc13)OC(C)(C)C=C2 | Not Active | 4.5 (≈ 15.8 µM) |  | 
COc1c(C(=O)OCCC(C)C)c2c(c3ccccc13)OC(C)(C)C=C2 |  | 0.8 (≈ 2.26 µM) | 10 (≈ 28.2 µM) | 
COC(=O)c1c2c(c3ccccc3c1O)OC(C)(C)C=C2 [MOLLUGIN] | Not Active | 2 (≈ 7.03 µM) |  | 
COC(=O)c1c2c(c3ccccc3c1OC)OC(C)(C)CC2 [DIHYDROMOLLUGIN METHYL ETHER] |  |  | 7 (≈ 23.3 µM) | inactive
COC(=O)c1c2c(c3ccccc3c1OC(C)=O)OC(C)(C)C=C2 [ACETYLMOLLUGIN] |  | 2 (≈ 6.13 µM) | 10 (≈ 30.6 µM) | 
COC(=O)c1c(OC)c2ccccc2c2occc12 [METHYLFUROMOLLUGIN] | Not Active |  |  | inactive
COC(=O)c1c(O)c2ccccc2c2occc12 [FUROMOLLUGIN] |  | 2 (≈ 8.26 µM) | 11.5 (≈ 47.5 µM) | 
COC(=O)c1c2c(c3ccccc3c1OC)OC(C)(C)C=C2 [MOLLUGIN METHYL ETHER] | Not Active |  |  | inactive
COC(=O)c1c2c(c3ccccc3c1O)OC(C)(C)CC2 [DIHYDROMOLLUGIN] |  | 2 (≈ 6.99 µM) | 8.2 (≈ 28.6 µM) | 
